According to patent US20100075978A1, “SULFONAMIDE DERIVATIVES AS BRADYKININ ANTAGONISTS” (priority 2006, published 2010):
Counter-ions that a name gives are not always drawn.

Experiments:
[1] = molecular target: T1, recombinant human B1 receptors (Homo sapiens, UniProt P46663); assay: Functional assay: cytosolic calcium ion concentration measured with plate reader fluorimeter in CHO-B1 cells, agonist LysDABK; format: cell-based; conditions: CHO-B1 cells, LysDABK at EC80, [Ca2+]i; read-out: B1 func.
T1 construct: host or cells: CHO (CHO-B1)
T1 sequence (P46663 1-353): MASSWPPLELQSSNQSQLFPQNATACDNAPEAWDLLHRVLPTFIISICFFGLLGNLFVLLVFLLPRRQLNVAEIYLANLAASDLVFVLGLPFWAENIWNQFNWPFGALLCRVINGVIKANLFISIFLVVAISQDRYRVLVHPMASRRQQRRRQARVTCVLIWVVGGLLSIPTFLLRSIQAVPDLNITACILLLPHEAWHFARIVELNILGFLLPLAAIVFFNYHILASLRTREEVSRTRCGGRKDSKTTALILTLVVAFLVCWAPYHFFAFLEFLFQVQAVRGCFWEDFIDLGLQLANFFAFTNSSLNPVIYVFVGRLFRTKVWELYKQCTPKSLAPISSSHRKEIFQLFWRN
Method: Assessment of Antagonist Potency at B1 and B2 Receptors In Vitro by Measurement of Cytosolic Calcium Ion Concentration with a Plate Reader Fluorimeter in Cells Expressing Recombinant Human B1 or B2 Receptors
Chinese hamster ovary (CHO) cells stably expressing recombinant human B1 (CHO-B1, Euroscreen) or B2 (CHO-B2, Perkin-Elmer) receptors were cultured in Dulbecco's Modified Eagle's Medium (DMEM) containing 10% Fetal Calf Serum (FCS), 100 U/ml penicillin, 0.1 mg/ml streptomycin, 0.25 μg/ml amphotericin B, 1% Minimum Essential Medium Eagle (MEM), non essential amino acid solution, 600 μg/ml G418, 1% pyruvate (for the B2 cell line). Cells were kept at 37° C. in a humidified incubator in an atmosphere of 5% CO2/95% air and were passaged 1:4 three times a week. Cells were plated at 1.5-2.5×10^4 cell/well on standard 96-well microplates, measurements of cytosolic calcium ion concentration ([Ca^2+]i) were carried out 1-2 days after cell plating.
Measurements of [Ca^2+]i were carried out on CHO-B1 and CHO-B2 cells stably expressing human B1 and B2 receptors, respectively. Cells were grown in standard 96-well microplates and before the measurement were loaded with a fluorescent Ca^2+-sensitive dye, fluo-4/AM (2 μM): after removing the culture medium the dye was added to the cells (dissolved in assay buffer: 145 mM NaCl, 5 mM KCl, 2 mM MgCl2, 2 mM CaCl2, 10 mM HEPES, 20 mM D-glucose, 2 mM probenecid, 100 μl/well) and cells were incubated at 37° C. in a humidified incubator in an atmosphere of 5% CO2/95% air for 40-120 min. To stop dye loading cells were washed twice with assay buffer. After washing, various concentrations of the test compounds (diluted in extracellular medium from a DMSO stock solution, final DMSO concentration was <0.1%) or buffer were added to each well depending on the experimental setup. After incubation at 37° C. for 20-25 min. baseline and agonist-evoked changes of [Ca^2+]i were measured column by column with a plate reader fluorimeter (Fluoroskan Ascent, Labsystems). Excitation and detection of emission was carried out from the bottom of the plate. Filters used for Fluo-4: excitation filter—485 nm, emission filter—538 nm. The whole measurement process was performed at 37° C. and was controlled by custom software. Inhibitory potency of the test compounds was assessed by measuring the reduction in the agonist-evoked [Ca^2]i-elevation in the presence of different concentrations of the compounds. The agonists were LysDABK for CHO-B1, and bradykinin for CHO-B2 cells. Agonists were applied at an EC80 concentration, the EC80-values were derived from daily determined dose-response curves. Fluorescence data were expressed as ΔF/F (fluorescence change normalized to baseline). All treatments on a single plate were measured in multiple wells. Data from all wells with the same treatment were averaged and the average values were used for analysis. Inhibitory potency of a compound at a single concentration point was expressed as percent inhibition of the control agonist response. Sigmoidal concentration-inhibition curves were fitted to the data (derived from at least three independent experiments) and IC50-values were determined as the concentration that produces half of the maximal inhibition caused by the compound.

[2] = molecular target: T2, human recombinant bradykinin B1 receptor (Homo sapiens, UniProt P46663); assay: Human recombinant bradykinin B1 receptor binding; conditions: radioligand [3H]-[Des-Arg10] Kallidin, CHO cell membranes; read-out: B1 binding
T2 construct: purchased Euroscreen ES-091; host or cells: CHO cells
T2 sequence (P46663 1-353): T1 sequence (P46663 1-353)
Method: 1. Human Recombinant Bradykinin B1 Receptor Binding
Binding assays were carried out on human recombinant bradykinin) receptors (expressed in CHO cells) according to the Euroscreen Technical Data Sheet (Cat.No.:ES-091). 20 μg protein/tube was incubated with [3,4-prolyl-3,4-^3H(N)]-[Des-Arg^10] Kallidin as radioligand. Non specific binding was determined in the presence of 10 μM Lys-des-Arg^9-Bradykinin. The final incubation volume was 250 μl. Samples were incubated for 15 min. at 25° C. then were rapidly vacuum filtered through GF/B filters presoaked for at least 1 h in 0.5% PEI. Radioactivity was determined by liquid scintillation spectroscopy.

SMILES | IC50 [1] | Ki [2]
O=C(Nc1ccc(N2CCC(N3CCCCC3)CC2)cc1)c1ccc(S(=O)(=O)Nc2cc(F)ccc2Oc2ccc(Br)cc2)cc1 [Example 58, N-(4-[1,4′]Bipiperidinyl-1′-yl-phenyl)-4-[2-(4-bromo-phenoxy)-5-fluoro-phenylsulfamoyl]-benzamide] | < 20 nM | < 20 nM
O=C(NCCN1CCN(Cc2ccccn2)CC1)c1ccc(S(=O)(=O)Nc2ccccc2Oc2ccc(Br)cc2)cc1 [Example 99, 4-[2-(4-Bromo-phenoxy)-phenylsulfamoyl]-N-[2-(4-pyridin-2-ylmethyl-piperazin-1-yl)-ethyl]-benzamide] | 20 to 100 nM | 20 to 100 nM
O=C(NCCCCC1CCNCC1)c1ccc(S(=O)(=O)Nc2ccccc2Oc2ccc(Br)cc2)cc1 [Example 101, 4-[2-(4-Bromo-phenoxy)-phenylsulfamoyl]-N-(4-piperidin-4-yl-butyl)-benzamide hydrochloride] | 20 to 100 nM | 20 to 100 nM
O=C(NCCCN1CCC(N2CCCCC2)CC1)c1ccc(S(=O)(=O)Nc2cc(F)ccc2Oc2ccc(Br)cc2)cc1 [Example 102, N-(3-[1,4′]Bipiperidinyl-1′-yl-propyl)-4-[2-(4-bromo-phenoxy)-5-fluoro-phenylsulfamoyl]-benzamide] | < 20 nM | < 20 nM
O=C(NCCCN1CCN(c2ccncc2)CC1)c1ccc(S(=O)(=O)Nc2cc(F)ccc2Oc2ccc(Br)cc2)cc1 [Example 105, 4-[2-(4-Bromo-phenoxy)-5-fluoro-phenylsulfamoyl]-N-[3-(4-pyridin-4-yl-piperazin-1-yl)-propyl]-benzamide] | < 20 nM | < 20 nM

More lines, now with the values ahead:

IC50 [1] | Ki [2] | SMILES
20 to 100 nM | 20 to 100 nM | O=C(CCNC(=O)c1ccc(S(=O)(=O)Nc2ccccc2Oc2ccc(Cl)cc2Cl)cc1)NCC1CCNCC1 [Example 37, 4-[2-(2,4-Dichloro-phenoxy)-phenylsulfamoyl]-N-{2-[(piperidin-4-ylmethyl)-carbamoyl]-ethyl}-benzamide acetate/hydrochloride mixed salt]
20 to 100 nM | 20 to 100 nM | Cc1ccnc(N2CCN(CCNC(=O)c3ccc(S(=O)(=O)Nc4ccccc4Oc4ccc(Cl)cc4Cl)cc3)CC2)c1 [Example 54, 4-[2-(2,4-Dichloro-phenoxy)-phenylsulfamoyl]-N-{2-[4-(4-methyl-pyridin-2-yl)-piperazin-1-yl]-ethyl}-benzamide]
20 to 100 nM | < 20 nM | O=C(CCNC(=O)c1ccc(S(=O)(=O)Nc2ccccc2Oc2ccc(Cl)cc2Cl)cc1)NCCC1CCNCC1 [Example 56, 4-[2-(2,4-Dichloro-phenoxy)-phenylsulfamoyl]-N-[2-(2-piperidin-4-yl-ethylcarbamoyl)-ethyl]-benzamide hydrochloride]
< 20 nM | < 20 nM | O=C(NCCC(=O)N1CCC(N2CCCCC2)CC1)c1ccc(S(=O)(=O)Nc2ccccc2Oc2ccc(Cl)cc2Cl)cc1 [Example 62, N-(3-[1,4′]Bipiperidinyl-1′-yl-3-oxo-propyl)-4-[2-(2,4-dichloro-phenoxy)-phenylsulfamoyl]-benzamide trifluoroacetate]
20 to 100 nM | 20 to 100 nM | O=C(N[C@H]1CC[C@H](CCN2CCCC2)CC1)c1ccc(S(=O)(=O)Nc2ccccc2Oc2ccc(Cl)c(Cl)c2)cc1 [Example 64, trans-4-[2-(3,4-Dichloro-phenoxy)-phenylsulfamoyl]-N-[4-(2-pyrrolidin-1-yl-ethyl)-cyclohexyl]-benzamide]
20 to 100 nM | 20 to 100 nM | O=C(NCCCN1CCCCC1)c1ccc(S(=O)(=O)Nc2ccccc2Oc2ccc(Cl)cc2Cl)cc1 [Example 76, 4-[2-(2,4-Dichloro-phenoxy)-phenylsulfamoyl]-N-(3-piperidin-1-yl-propyl)-benzamide]
100 to 500 nM | 100 to 500 nM | O=C(c1ccc(S(=O)(=O)Nc2ccccc2Oc2ccc(Cl)c(Cl)c2)cc1)N1CCN(CCCN2CCCCC2)CC1 [Example 87, N-[2-(3,4-Dichloro-phenoxy)-phenyl]-4-[4-(3-piperidin-1-yl-propyl)-piperazine-1-carbonyl]-benzenesulfonamide]
